Data as given in ChEMBL document CHEMBL1123809, “Amplification of bleomycin-mediated degradation of DNA” (J Med Chem, 1987).

Tested on: Nucleic Acid
Assay: Activity against DNA binding in calf thymus was determined
Type: nucleic-acid assay
Details: Bos taurus

Row | SMILES | K [M⁻¹]
1 | CN(C)CCSc1nccc(-c2cccs2)n1 | 18700
2 | CN(C)CCSc1nccc(-c2ccc(-c3ccnc(SCCN(C)C)n3)s2)n1 | 1.3e+07
3 | CN(C)CCNc1nccc(-c2cccs2)n1 | 4400
4 | CC[n+]1c(-c2ccccc2)c2cc(N)ccc2c2ccc(N)cc21 | 900000
5 | CN(C)CCCN1C(=O)c2ccc3c4c(ccc(c24)C1=O)C(=O)N(CCCN(C)C)C3=O | > 1e+06
